These are literature values, as cited in patent US20050080043A1, “Self-preserved antibacterial nasal, inhalable, and topical ophthalmic preparations and medications” (priority 2000, published 2005).

Where two headings read alike, the source gives them in different places.

Turning to `CC[C@@H]1C(=O)OC[C@@H]1Cc1cncn1C` [pilocarpine], the “stability of drug solution” value by setting is: (pH 5.0) “very stable”; (pH 6.8) “relatively unstable”.
